# Legend:
# TRPA1 = molecular target: T1, TRPA1 (Mus musculus, UniProt Q8BLA8); assay: TRPA1 inhibitory activity, IonWorks Barracuda (IWB) automatic patch clamp detection; assay type: cell-based; settings: automatic patch clamp
# T1 construct: expressed in transfected cells; host or cells: HEK293 cells stably expressing TRPA1
# Experimental: In this example, the compounds prepared in some examples of the present invention (shown in Table 1) were tested for their inhibitory activity on the transient receptor potential channel protein TRPA1. Wherein, compound of formula A (WO2010075353) was used as positive control: […]
# Test method by using IonWorks Barracuda (IWB) automatic patch clamp detection: HEK293 cells stably expressing TRPA1 were placed in a 37° C., 5% CO2 incubator and incubated with DMEM medium containing 15 μg/mL Blasticidin S HCl, 200 μg/mL Hygromycin B and 10% FBS serum in a T175 culture flask. When the cell density grew to […], the culture medium was removed, the cells were washed with calcium and magnesium free phosphate buffered saline (PBS), and 3 mL of Trypsin was added and digested for 2 minutes, and 7 mL of culture medium was added to terminate the digestion. […]
# Data recording and current amplitude measurement and export were completed by IWB Software (version 2.5.3, Molecular Devices Corporation, Union City, CA). The statistics of the well with a sealing impedance lower than 20 M Ω were not recorded. The original current data was corrected by software, the TRPA1 current amplitude was measured in +100 mV. […] The dose-effect curve and IC50 of compounds were fitted and calculated by GraphPad Prism 5.02 (GraphPad Software, San Diego, CA).
# [1] = test system: postoperative pain model in rat; assay: Postoperative pain model in rat, mechanical hyperalgesia test; assay type: in vivo; settings: 10 mg/kg intramuscular injection
# Experimental: Injection of compound I-1: 36.13 mg of compound I-1 prepared in Example 2 was weighed and added into 3.140 mL of normal saline, and well mixed by vortex;
# The solvent of the test compound I-1 was normal saline, the administration dose was 10 mg/kg, and the administration method was intramuscular injection. 36.13 mg of the compound I-1 was weighed and added into 3.140 mL normal saline, and well mixed by vortex. The reference compound used in the experiment was bupivacaine injection, purchased from Shanghai Zhaohui Pharmaceutical Co., Ltd., in a dose of 10 mg/kg via intramuscular injection.
# Aseptic operation was performed during surgery, surgical instruments (scissors, forceps, scalpel, surgical cotton, suture thread) were disinfected before the operation. The rats were anesthetized with sodium pentobarbital (50 mg/kg, intraperitoneal injection), and the toes of the rats were squeezed to confirm that the animals were completely anesthetized before the surgery. Ophthalmic ointment was applied to the animal's eyes to prevent the animal's cornea from drying out. Iodophor and 70% ethanol were used to disinfect the skin of the surgery area on the sole of the left hind foot three times, and the surgery was started after the skin was dried. Starting at 0.5 cm from the heel, a 1 cm long incision was made longitudinally toward the toe. After cutting the skin, the flexor digitorum brevis was lifted to make longitudinal blunt injury. After pressing to stop the bleeding, the wound was sutured. The surgical instruments were cleaned and sterilized with hot bead sterilizer. After the surgery, the animals were placed on an electric blanket and injected subcutaneously with 5 mL normal saline to prevent dehydration. When the animal was completely awake (free to move), put the animal back into the cage. […]
# The rat was placed alone in a plexiglass box with a grid on the bottom of the box to ensure that the rat's feet can be tested. […] During the test, the animal's rapid foot shrinkage was recorded as a pain response. The animal's foot shrinkage when the test fiber left the animal's skin was also recorded as a pain response. If the animal moved or walked, it would not be recorded as the pain response, the test should be repeated. […] The mechanical hyperalgesia test results are recorded in the table of FIG. 10, in which pain response is indicated with an “x” and no pain response is indicated with an “o.”
# Mechanical hyperalgesia was expressed as the paw withdrawal threshold (PWT) in the behavioral test of rats, which was calculated according to the following equation: 50% response threshold (g)=(10(Xf+k))/10,000 • Xf=the final test fiber value used in the test • K=table value (Chaplan et al. 1994, page 62) • □=Average difference 5. […]
# SNL model in rat = assay: SNL model in rat, mechanical hyperalgesia test; assay type: in vivo, SD rats; settings: 10 mg/kg intragastric, 1 hour after administration, hydrochloride used; control group 3.967 ± 0.775
# Experimental: SD rats were taken for surgery, male, SPF grade, mass 150 g-180 g. The surgical procedure was performed aseptically. The animals were anesthetized with sodium pentobarbital (50 mg/kg, intraperitoneal injection). The surgical area of the waist of animals was shaved, and the skin was disinfected three times with iodophor and 70% ethanol. Start the operation after the skin was dry. A longitudinal incision was made in the posterior part of the sacral bone of the animal's waist with a scalpel to expose the left paravertebral muscles, and the muscle tissue was separated with a distractor to expose the vertebra. The left spinal nerves L5 and L6 were separated, ligated with 6-0 silk thread, and the wounds were sutured. After the surgery, the animals were placed on an electric blanket and injected subcutaneously with 5 mL normal saline to prevent dehydration. When the animal was completely awake (free to move), put the animal back into the cage.
# After the surgery, the animals were adapted in the experimental environment for 15 minutes/day for 3 days.
# After administration, mechanical hyperalgesia test was performed. The rats were placed individually in a plexiglas box with a grid at the bottom of the box to ensure that the feet of the rats can be tested. Rats would adapt for 15 minutes before the test. […] The rapid paw withdrawal of the animal during the test was recorded as a pain response. The paw withdrawal of the animal when the test fiber left the animal's skin was also recorded as a pain response. If the animal moved or walked, it will not be recorded as a pain response, the test should be repeated. […]
# Mechanical hyperalgesia was expressed as the paw withdrawal threshold (PWT) in the behavioral test of rats, which was calculated according to the following equation: 50% response threshold (g)=(10(^Xf+kδ))/10,000 • Xf=the final test fiber value used in the test • K=table value • δ=Average difference
# Data were collected using Excel software and analyzed using Prism 6.01 (Graph pad software, Inc.) software.
# T1 sequence (Q8BLA8 whole entry): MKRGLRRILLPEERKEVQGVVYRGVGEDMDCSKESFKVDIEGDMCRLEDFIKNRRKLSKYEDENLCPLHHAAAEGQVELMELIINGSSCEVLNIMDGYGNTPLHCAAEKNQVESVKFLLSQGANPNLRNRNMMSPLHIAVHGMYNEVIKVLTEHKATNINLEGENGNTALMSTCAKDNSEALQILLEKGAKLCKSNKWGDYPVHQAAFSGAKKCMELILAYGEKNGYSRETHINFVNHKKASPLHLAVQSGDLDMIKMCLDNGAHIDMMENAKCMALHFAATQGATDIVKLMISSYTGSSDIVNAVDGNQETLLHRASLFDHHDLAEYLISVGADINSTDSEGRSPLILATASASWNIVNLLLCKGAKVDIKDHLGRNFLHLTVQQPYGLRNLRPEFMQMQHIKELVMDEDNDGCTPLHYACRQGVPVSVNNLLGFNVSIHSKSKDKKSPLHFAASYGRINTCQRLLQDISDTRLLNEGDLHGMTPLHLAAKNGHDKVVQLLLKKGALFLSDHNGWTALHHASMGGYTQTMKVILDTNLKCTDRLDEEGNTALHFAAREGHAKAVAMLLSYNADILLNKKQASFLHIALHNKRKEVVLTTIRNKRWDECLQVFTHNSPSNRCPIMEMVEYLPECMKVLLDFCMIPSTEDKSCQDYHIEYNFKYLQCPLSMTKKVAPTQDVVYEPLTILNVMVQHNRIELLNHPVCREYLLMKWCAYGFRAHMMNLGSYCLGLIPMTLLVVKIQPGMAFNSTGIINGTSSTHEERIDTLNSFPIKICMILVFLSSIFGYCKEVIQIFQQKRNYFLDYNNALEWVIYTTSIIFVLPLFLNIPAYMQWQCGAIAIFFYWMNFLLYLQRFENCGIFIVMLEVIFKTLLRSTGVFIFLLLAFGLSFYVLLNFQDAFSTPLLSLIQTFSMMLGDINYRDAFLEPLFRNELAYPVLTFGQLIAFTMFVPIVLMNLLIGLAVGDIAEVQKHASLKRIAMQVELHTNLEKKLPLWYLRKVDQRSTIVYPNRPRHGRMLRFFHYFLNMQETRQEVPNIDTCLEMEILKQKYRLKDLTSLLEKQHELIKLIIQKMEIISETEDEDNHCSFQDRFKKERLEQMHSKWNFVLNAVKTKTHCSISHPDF
smiles,measurement,setting,value
"CNCC[C@@H](Oc1cccc2ccoc12)c1cccs1 [Compound I-1, (R)-3-(benzofuran-7-yloxy)-N-methyl-3-(thiophen-2-yl)propan-1-amine]",activity ratio (IC50 of compound C2/IC50 of compound I-1),TRPA1,about 6.3
same,PWT,"[1]; 1 hour after administration, Normal Saline 3.561",5.885 g
same,PWT (g),"[1]; 2 hours after administration, Normal Saline 3.382",5.135. g
same,PWT,SNL model in rat,7.869 ± 2.846 g

# Source: patent publication US12570643B2, “3-aryloxy-3-five-membered heteroaryl propylamine compound, and crystal form and use thereof” (Shanghai Leado Pharmatech Co. Ltd., priority 2019, dated 2026)
